In US7064122B2, “Pancreatic lipase inhibitor compounds, their synthesis and use” (OSI Pharmaceuticals, Inc., priority 2001, dated 2006):

Target: T1, type VI-S porcine pancreatic lipase (Sus scrofa, UniProt P00591)
T1 construct: purchased Sigma type VI-S (catalogue number not given)
T1 sequence (P00591 1-450): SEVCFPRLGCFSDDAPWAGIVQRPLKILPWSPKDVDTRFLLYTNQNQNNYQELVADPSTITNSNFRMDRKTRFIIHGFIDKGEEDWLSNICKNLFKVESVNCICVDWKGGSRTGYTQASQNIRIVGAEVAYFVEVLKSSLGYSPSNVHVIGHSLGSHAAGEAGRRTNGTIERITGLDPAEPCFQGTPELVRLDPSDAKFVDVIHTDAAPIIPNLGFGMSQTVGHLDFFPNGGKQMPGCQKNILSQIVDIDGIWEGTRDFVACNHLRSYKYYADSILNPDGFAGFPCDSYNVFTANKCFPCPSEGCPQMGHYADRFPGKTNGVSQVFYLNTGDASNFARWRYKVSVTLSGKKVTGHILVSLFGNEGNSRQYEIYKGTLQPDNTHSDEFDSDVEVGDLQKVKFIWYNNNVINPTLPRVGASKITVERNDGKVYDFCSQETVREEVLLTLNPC
Assay: Pancreatic lipase assay (pH-stat titration, triolein substrate)
Type: biochemical
Set-up: Ymax: unit not given here
Conditions: for k / Ymax: 7.0 nM lipase, 700 nM inhibitor, pH 8.0; for k: k fitted for the 12.5 min after inhibitor addition, Y=Ymax*(1-exp(-k*X)); for inhibition at 0.7 µM: 12.5 min; for Ymax: Ymax of the fit Y=Ymax*(1-exp(-k*X))
Description: The use of a pancreatic lipase assay has been described in the literature (Hadvary, P. et al. Biochem. J. (1988) 256: 357-361; Hadvary, P. et al. Biochem. J. (1991) 266:2021-2027). Pancreatic lipase activity was measured using a 718 Stat Titrino (Brinkmann) programmed to maintain a pH of 8.0 using 0.1 N NaOH. The substrate mixture (pH 8) contained 1 mM taurochenodeoxycholate (Sigma), 9 mM taurodeoxycholate (Sigma), 0.1 mM cholesterol (Sigma), 1 mM phosphatidylcholine (Sigma), 1.5% BSA, 2 mM Tris base, 100 mM NaCl, 10 mM CaCl2, and 3% triolein (Sigma). The mixture (5 mL) was emulsified via sonication at room temperature, and added to the titration vessel with rapid stirring. The Stat Titrino was turned on and lipase (7.0 nM type VI-S porcine pancreatic lipase (Sigma) dissolved in PBS) was added to the vessel. After 10 min, inhibitor (700 nM dissolved in 100% DMSO) was added and the reaction continued for an additional 12.5 min. The k values were determined for the 12.5 min after the addition of the inhibitor using a one phase exponential association equation, Y=Ymax*(1−exp(−k*X)), k values for lipase alone were 0.0004±0.0001 sec. The k values for compounds disclosed herein are >0.0004±0.0001 sec.

k	inhibition at 0.7 µM [%]	Ymax	Compound
0.022 10-3.s-1	–	–	CCCCCCCCNc1nc2sc(C(=O)N(C)Cc3cccc(C)n3)c(C)c2c(=O)o1 [Entry 49, 5-Methyl-2-octylamino-4-oxo-4H-thieno[2,3-d][1,3]oxazine-6-carboxylic acid methyl-(6-methyl-pyridin-2-ylmethyl)-amide]
0.414 10-3.s-1	–	–	CCCCCCCCNC(=O)N(CCCCCCCC)c1nc2sc(C(=O)OCc3ccccc3)c(C)c2c(=O)o1 [Entry 13, 2-(1,3-Dioctyl-ureido)-5-methyl-4-oxo-4H-thieno[2,3-d][1,3]oxazine-6-carboxylic acid benzyl ester]
1.349 10-3.s-1	–	–	CCCCCCCOC(=O)c1sc2nc(OCCCCCCC)oc(=O)c2c1C [Entry 10, 5-Methyl-2-heptyloxy-4-oxo-4H-thieno[2,3-][1,3]oxazine-6-carboxylic acid heptyl ester]
1.548 10-3.s-1	–	–	CCCCCCCCNC(=O)c1sc2nc(OCCCCCCCC)oc(=O)c2c1C [Entry 15, 5-Methyl-2-octyloxy-4-oxo-4H-thieno[2,3-d][1,3]oxazine-6-carboxylic acid octylamide]
0.110 10-3.s-1	–	–	CCCCCCCCNc1nc2sc(C(=O)N3CCN(Cc4ccccc4)CC3)c(C)c2c(=O)o1 [Entry 40, 6-(4-Benzyl-piperazine-1-carbonyl)-5-methyl-2-octylamino-thieno[2,3-d][1,3]oxazin-4-one]
0.797 10-3.s-1	–	–	CCCCCCCCCCCCNC(=O)c1sc2nc(NCCCCCCCC)oc(=O)c2c1C [Entry 29, 5-Methyl-2-octylamino-4-oxo-4H-thieno[2,3-d][1,3]oxazine-6-carboxylic acid dodecylamide]
–	96.1	–	CCCCCCCCOc1nc2sc(CCCCCCCC)cc2c(=O)o1 [Entry 85, 6-Octyl-2-octyloxy-thieno[2,3-d][1,3]oxazin-4-one]
0.770 10-3.s-1	–	–	CCCCCCCCNc1nc2sc(C(=O)NC(CCCC)CCCC)c(C)c2c(=O)o1 [Entry 45, 5-Methyl-2-octylamino-4-oxo-4H-thieno[2,3-d][1,3]oxazine-6-carboxylic acid (1-butyl-pentyl)-amide]
0.086 10-3.s-1	–	14.657	CCCCCCC(C)Nc1nc2sc(C(=O)OCc3ccccc3)c(C)c2c(=O)o1 (stereo not shown) [Entry 71, 5-Methyl-2-(1-methylheptylamino)-4-oxo-4H-thieno[2,3-d][1,3]oxazine-6-carboxylic acid benzyl ester]
–	74.2	–	CCCCCCCCCCCCc1cc2c(=O)oc(OCCCCCCCC)nc2s1 [Entry 88, 6-Dodecyl-2-octyloxy-thieno[2,3-d][1,3]oxazin-4-one]
3.033 10-3.s-1	71.3	0.029	CCCCCCCCOc1nc2sc(CCCCCC)cc2c(=O)o1 [Entry 84, 6-Hexyl-2-octyloxythieno[2,3-d][1,3]oxazin-4-one]
1.667 10-3.s-1	–	–	CCCCCCCCNc1nc2sc(C(=O)NCCCOc3ccccc3)c(C)c2c(=O)o1 [Entry 44, 5-Methyl-2-octylamino-4-oxo-4H-thieno[2,3-d][1,3]oxazine-6-carboxylic acid (3-phenoxy-propyl)-amide]
1.999 10-3.s-1	–	0.140	CCCCCCCCNc1nc2sc(C(=O)NCCOc3ccccc3)c(C)c2c(=O)o1 [Entry 70, 5-Methyl-2-octylamino-4-oxo-4H-thieno(2,3-d)(1,3)oxazine-6-carboxylic acid (2-phenoxy-ethyl)-amide]
0.537 10-3.s-1	–	–	CCCCCCCCNc1nc2sc(C(=O)N(C)C)c(C)c2c(=O)o1 [Entry 22, 5-Methyl-2-octylamino-4-oxo-4H-thieno[2,3-d][1,3]oxazine-6-carboxylic acid dimethylamide]
0.176 10-3.s-1	–	3.917	CCCCCCCCNc1nc2sc(C(=O)N3CCN(CC(=O)NC(C)C)CC3)c(C)c2c(=O)o1 [Entry 64, N-Isopropyl-2-(4-(5-methyl-2-octylamino-4-oxo-4H-thieno(2,3-d)(1,3)oxazine-6-carbonyl)-piperazin-1-yl)-acetamide]
0.547 10-3.s-1	–	–	CCCCCCCCOc1nc2sc(C(=O)O)c(C)c2c(=O)o1 [Entry 11, 5-Methyl-2-octyloxy-4-oxo-4H-thieno[2,3-d][1,3]oxazine-6-carboxylic acid]
2.447 10-3.s-1	–	–	CCCCCCCCNc1nc2sc(C(=O)NCCCC)c(C)c2c(=O)o1 [Entry 32, 5-Methyl-2-octylamino-4-oxo-4H-thieno[2,3-d][1,3]oxazine-6-carboxylic acid butylamide]

k	inhibition at 0.7 µM [%]	Ymax	Compound
0.146 10-3.s-1	–	0.616	CCCCCCCCNc1nc2sc(C(=O)N(CCCC)CCCC)c(C)c2c(=O)o1 [Entry 36, 5-Methyl-2-octylamino-4-oxo-4H-thieno[2,3-d][1,3]oxazine-6-carboxylic acid dibutylamide]
2.219 10-3.s-1	–	0.054	CCCCCCCCOc1nc2sc(CCCC)cc2c(=O)o1 [Entry 75, 6-Butyl-2-octyloxy-thieno[2,3-d][1,3]oxazin-4-one]
–	12.4	–	CCCCCCCc1cc2c(=O)oc(OC(C)CCCCCC)nc2s1 (stereo not shown) [Entry 91, 6-Heptyl-2-(1-methylheptyloxy)thieno[2,3-d][1,3]oxazin-4-one]
1.288 10-3.s-1	–	0.161	CCCCCCCCOc1nc2sc(C(C)C)cc2c(=O)o1 [Entry 76, 6-Isopropyl-2-octyloxy-thieno[2,3-d][1,3]oxazin-4-one]
1.257 10-3.s-1	–	–	CCCCCCCCNc1nc2sc(C(=O)NCc3ccco3)c(C)c2c(=O)o1 [Entry 52, 5-Methyl-2-octylamino-4-oxo-4H-thieno[2,3-d][1,3]oxazine-6-carboxylic acid (furan-2-ylmethyl)-amide]
1.315 10-3.s-1	17.9	0.126	CCCCCCCCOc1nc2sc(C(C)CC(C)(C)C)cc2c(=O)o1 (stereo not shown) [Entry 78, 2-Octyloxy-6-(1,3,3-trimethyl-butyl)-thieno[2,3-d][1,3]oxazin-4-one]
0.062 10-3.s-1	–	–	CCCCCCCCNc1nc2sc(C(=O)NCCCN(C)C)c(C)c2c(=O)o1 [Entry 46]
0.392 10-3.s-1	–	0.482	CCCCCCCCOc1nc2sc(Cc3ccccc3)cc2c(=O)o1 [Entry 77, 6-Benzyl-2-octyloxythieno[2,3-d][1,3]oxazin-4-one]
1.079 10-3.s-1	–	–	CCCCCCCCNc1nc2sc(C(=O)NCc3ccccc3)c(C)c2c(=O)o1 [Entry 21, 5-Methyl-2-octylamino-4-oxo-4H-thieno[2,3-d][1,3]oxazine-6-carboxylic acid benzylamide]
–	73.6	–	CCCCCCCCCCc1cc2c(=O)oc(OCCCCCCCC)nc2s1 [Entry 86, 6-Decyl-2-octyloxythieno[2,3-d][1,3]oxazin-4-one]
–	36.9	–	CCCCCCCCOc1nc2sc(C(C)CCCC(C)(C)OC)cc2c(=O)o1 (stereo not shown) [Entry 83, 6-(5-Methoxy-1,5-dimethyl-hexyl)-2-octyloxy-thieno[2,3-d][1,3]oxazin-4-one]
2.173 10-3.s-1	–	0.045	CCCCCCCCNc1nc2sc(C(=O)NC3CCCCC3)c(C)c2c(=O)o1 [Entry 38, 5-Methyl-2-octylamino-4-oxo-4H-thieno[2,3-d][1,3]oxazine-6-carboxylic acid cyclohexylamide]
0.998 10-3.s-1	–	–	CCCCCCCCCCNC(=O)c1sc2nc(NCCCCCCCC)oc(=O)c2c1C [Entry 28, 5-Methyl-2-octylamino-4-oxo-4H-thieno[2,3-d][1,3]oxazine-6-carboxylic acid decylamide]
2.577 10-3.s-1	–	–	CCCCCCCCNc1nc2sc(C(=O)NCCCCCC)c(C)c2c(=O)o1 [Entry 27, 5-Methyl-2-octylamino-4-oxo-4H-thieno[2,3-d][1,3]oxazine-6-carboxylic acid hexylamide]
7.74 10-3.s-1	–	–	CCCCCCCNc1nc2sc(C(=O)OCc3ccccc3)c(C)c2c(=O)o1 [Entry 17, 2-Heptylamino-5-methyl-4-oxo-4H-thieno[2,3-d][1,3]oxazine-6-carboxylic acid benzyl ester]
0.864 10-3.s-1	–	–	CCCCCCCCNc1nc2sc(C(=O)NCc3ccccn3)c(C)c2c(=O)o1 [Entry 34, 5-Methyl-2-octylamino-4-oxo-4H-thieno[2,3-d][1,3]oxazine-6-carboxylic acid (pyridin-2-ylmethyl)amide]
0.012 10-3.s-1	–	–	CCCCCCCCNc1nc2sc(C(=O)N(CC)CCc3ccccn3)c(C)c2c(=O)o1 [Entry 51, 5-Methyl-2-octylamino-4-oxo-4H-thieno[2,3-d][1,3]oxazine-6-carboxylic acid ethyl-(2-pyridin-2-yl-ethyl)-amide]
